For the experiment, the system named is MV4-11 cells. Description: Cell proliferation assay MV4;11 (CellTiter-Glo, 72 hours). The class given is cell-based. Particulars: Homo sapiens; MV4;11 leukemia cell line, 72 hours; read-out: MV4; 11 IC50. In a few lines:
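Luminescent CellTiter-Glo readout after 72 h culture, 37 °C, 5% CO2, expressed relative to vehicle-treated wells, with maximal inhibition taken at the highest dose. MLL-rearranged MV4-11 leukemia cells; final compound range 0.632 to 2000 nM in eight steps.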
A general note: In ATP-based viability assays light output follows the ATP content of the culture.

For the compound `CCN(C(=O)c1cc(F)ccc1Oc1cncnc1N1CC2(CCN(C[C@@H]3CC[C@@H](NS(=O)(=O)CCOC)CO3)CC2)C1)C(C)C` [Example 8, N-Ethyl-5-fluoro-N-isopropyl-2-((4-(7-(((2S,5R)-5-((2-methoxyethyl)sulfonamido)tetrahydro-2H-pyran-2-yl)methyl)-2,7-diazaspiro[3.5]nonan-2-yl)pyrimidin-5-yl)oxy)benzamide], the IC50 was < 100 nM.

As to `CCNS(=O)(=O)N[C@@H]1CC[C@@H](CN2CCC3(CC2)CN(c2ncncc2Oc2ccc(F)cc2C(=O)N(CC(F)F)C(C)C)C3)OC1` [Example 147, N-(2,2-Difluoroethyl)-2-((4-(7-(((2S,5R)-5-((N-ethylsulfamoyl)amino)tetrahydro-2H-pyran-2-yl)methyl)-2,7-diazaspiro[3.5]nonan-2-yl)pyrimidin-5-yl)oxy)-5-fluoro-N-isopropylbenzamide], the IC50 was < 100 nM.

As for `CCN(C(=O)c1cc(F)ccc1Oc1cncnc1N1CC2(CCN(C[C@@H]3CC[C@@H](NS(C)(=O)=O)CO3)CC2)C1)C(C)C` [Example 1, N-Ethyl-5-fluoro-N-isopropyl-2-((4-(7-(((2S,5R)-5-(methylsulfonamido)tetrahydro-2H-pyran-2-yl)methyl)-2,7-diazaspiro[3.5]nonan-2-yl)pyrimidin-5-yl)oxy)benzamide], the IC50 was < 100 nM.

As for `CC(C)N(C(=O)c1cc(F)ccc1Oc1cncnc1N1CC2(CCN(C[C@@H]3CC[C@@H](NS(=O)(=O)N(C)C(C)C)CO3)CC2)C1)C1CC(F)(F)C1` [Example 119, N-(3,3-Difluorocyclobutyl)-5-fluoro-N-isopropyl-2-((4-(7-(((2S,5R)-5-((N-isopropyl-N-methylsulfamoyl)amino)tetrahydro-2H-pyran-2-yl)methyl)-2,7-diazaspiro[3.5]nonan-2-yl)pyrimidin-5-yl)oxy)benzamide], the IC50 is < 100 nM.

As for `CC(C)N(C(=O)c1cc(F)ccc1Oc1cncnc1N1CC2(CCN(C[C@@H]3CC[C@@H](NS(=O)(=O)N4CCC4)CO3)CC2)C1)C1CC(F)(F)C1` [Example 118, 2-((4-(7-(((2S,5R)-5-(Azetidine-1-sulfonamido)tetrahydro-2H-pyran-2-yl)methyl)-2,7-diazaspiro[3.5]nonan-2-yl)pyrimidin-5-yl)oxy)-N-(3,3-difluorocyclobutyl)-5-fluoro-N-isopropylbenzamide], the IC50 was < 100 nM. The value for `CC(C)N(C(=O)c1cc(F)ccc1Oc1cncnc1N1CC2(CCN(C[C@@H]3CC[C@@H](NS(C)(=O)=O)CO3)CC2)C1)[C@H]1CCOC1` [Example 173, 5-Fluoro-N-isopropyl-2-((4-(7-(((2S,5R)-5-(methylsulfonamido)tetrahydro-2H-pyran-2-yl)methyl)-2,7-diazaspiro[3.5]nonan-2-yl)pyrimidin-5-yl)oxy)-N-((S)-tetrahydrofuran-3-yl)benzamide] was < 100 nM; that for `CCCNC(=O)N[C@@H]1CC[C@@H](CN2CCC3(CC2)CN(c2ncncc2Oc2ccc(F)cc2C(=O)N(CC)C(C)C)C3)OC1` [Example 38, N-Ethyl-5-fluoro-N-isopropyl-2-((4-(7-(((2S,5R)-5-(3-propylureido)tetrahydro-2H-pyran-2-yl)methyl)-2,7-diazaspiro[3.5]nonan-2-yl)pyrimidin-5-yl)oxy)benzamide] was 100 to 1000 nM. Consider `CC(C)N(C(=O)c1cc(F)ccc1Oc1cncnc1N1CC2(CCN(C[C@@H]3CC[C@@H](NS(=O)(=O)N4CCOCC4)CO3)CC2)C1)C(C)C` [Example 78, 5-Fluoro-N,N-diisopropyl-2-((4-(7-(((2S,5R)-5-(morpholine-4-sulfonamido)tetrahydro-2H-pyran-2-yl)methyl)-2,7-diazaspiro[3.5]nonan-2-yl)pyrimidin-5-yl)oxy)benzamide], for which the IC50 was < 100 nM.

In the case of `C[C@@H]1COC[C@@H](C)N1C(=O)c1cc(F)ccc1Oc1cncnc1N1CC2(CCN(C[C@@H]3CC[C@@H](NS(C)(=O)=O)CO3)CC2)C1` [Example 28, N-((3R,6S)-6-((2-(5-(2-((3R,5R)-3,5-Dimethylmorpholine-4-carbonyl)-4-fluorophenoxy)pyrimidin-4-yl)-2,7-diazaspiro[3.5]nonan-7-yl)methyl)tetrahydro-2H-pyran-3-yl)methanesulfonamide], the IC50 was in the range of 100 to 1000 nM. For `CCNS(=O)(=O)N[C@@H]1CC[C@@H](CN2CCC3(CC2)CN(c2ncnnc2Oc2ccc(F)cc2C(=O)N(C(C)C)C(C)C)C3)OC1` [Example 198, 2-((5-(7-(((2S,5R)-5-((N-Ethylsulfamoyl)amino)tetrahydro-2H-pyran-2-yl)methyl)-2,7-diazaspiro[3.5]nonan-2-yl)-1,2,4-triazin-6-yl)oxy)-5-fluoro-N,N-diisopropylbenzamide], the IC50 is < 100 nM. The value for `CNS(=O)(=O)N[C@@H]1CC[C@@H](CN2CCC3(CC2)CN(c2ncncc2Oc2ccc(F)cc2C(=O)N(C(C)C)C2CC(F)(F)C2)C3)OC1` [Example 154, N-(3,3-Difluorocyclobutyl)-5-fluoro-N-isopropyl-2-((4-(7-(((2S,5R)-5-((N-methylsulfamoyl)amino)tetrahydro-2H-pyran-2-yl)methyl)-2,7-diazaspiro[3.5]nonan-2-yl)pyrimidin-5-yl)oxy)benzamide] was < 100 nM. Then `CCNS(=O)(=O)N[C@@H]1CC[C@@H](CN2CCC3(CC2)CN(c2ncncc2Oc2ccc(F)cc2C(=O)N(C(C)C)[C@@H]2CCOC2)C3)OC1` [Example 172, 2-((4-(7-(((2S,5R)-5-((N-ethylsulfamoyl)amino)tetrahydro-2H-pyran-2-yl)methyl)-2,7-diazaspiro[3.5]nonan-2-yl)pyrimidin-5-yl)oxy)-5-fluoro-N-isopropyl-N-((R)-tetrahydrofuran-3-yl)benzamide], with < 100 nM; and `CCS(=O)(=O)N[C@@H]1CC[C@@H](CN2CCC3(CC2)CN(c2ncncc2Oc2ccc(F)cc2C(=O)N(CCOC)C(C)C)C3)OC1` [Example 35, 2-((4-(7-(((2S,5R)-5-(Ethylsulfonamido)tetrahydro-2H-pyran-2-yl)methyl)-2,7-diazaspiro[3.5]nonan-2-yl)pyrimidin-5-yl)oxy)-5-fluoro-N-isopropyl-N-(2-methoxyethyl)benzamide], with < 100 nM. On to `CCN(C(=O)c1cc(F)ccc1Oc1cncnc1N1CC2(CCN(C[C@@H]3CC[C@@H](NS(=O)(=O)c4ccc(Cl)cc4)CO3)CC2)C1)C(C)C` [Example 61, 2-((4-(7-(((2S,5R)-5-((4-Chlorophenyl)sulfonamido)tetrahydro-2H-pyran-2-yl)methyl)-2,7-diazaspiro[3.5]nonan-2-yl)pyrimidin-5-yl)oxy)-N-ethyl-5-fluoro-N-isopropylbenzamide], for which the IC50 is < 100 nM. Then `CCN(CC)S(=O)(=O)N[C@@H]1CC[C@@H](CN2CCC3(CC2)CN(c2ncncc2Oc2ccc(F)cc2C(=O)N(CC(F)F)C(C)C)C3)OC1` [Example 97, 2-((4-(7-(((2S,5R)-5-((N,N-Diethylsulfamoyl)amino)tetrahydro-2H-pyran-2-yl)methyl)-2,7-diazaspiro[3.5]nonan-2-yl)pyrimidin-5-yl)oxy)-N-(2,2-difluoroethyl)-5-fluoro-N-isopropylbenzamide], with < 100 nM; and `C[C@@H]1COC[C@@H](C)N1C(=O)c1cc(F)ccc1Oc1cncnc1N1CC2(CCN(C[C@@H]3CC[C@@H](NS(=O)(=O)C4CC4)CO3)CC2)C1` [Example 31, N-((3R,6S)-6-((2-(5-(2-((3R,5R)-3,5-dimethylmorpholine-4-carbonyl)-4-fluorophenoxy)pyrimidin-4-yl)-2,7-diazaspiro[3.5]nonan-7-yl)methyl)tetrahydro-2H-pyran-3-yl)cyclopropanesulfonamide], with < 100 nM; and `CCS(=O)(=O)N[C@@H]1CC[C@@H](CN2CCC3(CC2)CN(c2ncncc2Oc2ccc(F)cc2C(=O)N(C(C)C)[C@@H]2C[C@@H]4CC[C@H]2O4)C3)OC1` [Example 251, N-((1R,2R,4S)-7-Oxabicyclo[2.2.1]heptan-2-yl)-2-((4-(7-(((2S,5R)-5-(ethylsulfonamido)tetrahydro-2H-pyran-2-yl)methyl)-2,7-diazaspiro[3.5]nonan-2-yl)pyrimidin-5-yl)oxy)-5-fluoro-N-isopropylbenzamide], with < 100 nM.

As for `CCN(C(=O)c1cc(F)ccc1Oc1cncnc1N1CC2(CCN(C[C@@H]3CC[C@@H](NC(=O)NCC(F)(F)F)CO3)CC2)C1)C(C)C` [Example 37, N-Ethyl-5-fluoro-N-isopropyl-2-((4-(7-(((2S,5R)-5-(3-(2,2,2-trifluoroethyl)ureido)tetrahydro-2H-pyran-2-yl)methyl)-2,7-diazaspiro[3.5]nonan-2-yl)pyrimidin-5-yl)oxy)benzamide], the IC50 is < 100 nM. `CC(C)N(C(=O)c1cc(F)ccc1Oc1cncnc1N1CC2(CCN(C[C@@H]3CC[C@@H](NC(=O)OC(C)(C)C)CO3)CC2)C1)C1CC1` [Example 17, tert-Butyl ((3R,6S)-6-((2-(5-(2-(cyclopropyl(isopropyl)carbamoyl)-4-fluorophenoxy)pyrimidin-4-yl)-2,7-diazaspiro[3.5]nonan-7-yl)methyl)tetrahydro-2H-pyran-3-yl)carbamate]: the IC50 is < 100 nM. The value for `CCN(C(=O)c1cc(F)ccc1Oc1cncnc1N1CC2(CCN(C[C@@H]3CC[C@@H](NS(=O)(=O)C(C)C)CO3)CC2)C1)C(C)C` [Example 3, N-Ethyl-5-fluoro-N-isopropyl-2-((4-(7-(((2S,5R)-5-((1-methylethyl)sulfonamido)tetrahydro-2H-pyran-2-yl)methyl)-2,7-diazaspiro[3.5]nonan-2-yl)pyrimidin-5-yl)oxy)benzamide] was < 100 nM; that for `CCN(C(=O)c1cc(F)ccc1Oc1cncnc1N1CC2(CCN(C[C@@H]3CC[C@@H](NS(=O)(=O)c4ccccc4OC)CO3)CC2)C1)C(C)C` [Example 65, N-Ethyl-5-fluoro-N-isopropyl-2-((4-(7-(((2S,5R)-5-((2-methoxyphenyl)sulfonamido)tetrahydro-2H-pyran-2-yl)methyl)-2,7-diazaspiro[3.5]nonan-2-yl)pyrimidin-5-yl)oxy)benzamide] was < 100 nM.

For the origin of these results see patent US11919901B2 (Syndax Pharmaceuticals, Inc., priority 2021, dated 2024).
